In EP0007672A1, “Isocyanoalkenes, process and useful intermediates for their preparation, pharmaceutical and fungicidal preparations containing those isocyanoalkenes and the use of the fungicidal preparations in agriculture” (GIST-BROCADES N.V., priority 1978, dated 1980):
Values after ≈ are worked out from the molar mass of the structure shown. Like-named read-outs stand apart in the source and are kept apart here. One block for each compound: values may come before it.

Key:
Test in all cases: MIC (Minimum Inhibitory Concentration)
Format in all cases: cell-based
Bacillus subtilis = details: ATCC6633; Bacillus subtilis ATCC 6633
Candida albicans = system: Candida albicans
Diplococcus pneumoniae = details: Streptococcus pneumoniae; Diplococcus pneumoniae A 2783
Pasteurella multocida = details: read-out: MIC values
Proteus morganii = details: Morganella morganii; Proteus morganii 2241
Staphylococcus aureus = system: Staphylococcus aureus
[1] = system: Streptococcus haemolyticus; details: read-out: MIC values
Trichophyton equinum = system: Trichophyton equinum
[2] = system: Trichophyton mentagrophytus
Trichophyton quickeaneum = details: read-out: MIC values
Trichophyton rubrum = system: Trichophyton rubrum
[3] = system: Trichophyton schoenleinii; details: read-out: MIC values
[4] = system: Trichophyton soudanese joyeux; details: read-out: MIC values
Trichophyton tonsurans = details: read-out: MIC values
Trichophyton verrucosum = system: Trichophyton verrucosum
Trichophyton violoceum = details: read-out: MIC values
Fusarium (bulb) = Fusarium (bulb) A 3252
Fusarium (tulip) = Fusarium (tulip) A 3253
Fusarium solani = details: Fusarium solani, read-out: MIC values
Rhizoctonia solani = details: Rhizoctonia solani, read-out: MIC values

MIC (Bacillus subtilis): 12.5 µg/mL (≈ 47.5 µM)
MIC (Candida albicans; Candida albicans A 7, read-out: MIC values): 6 µg/mL (≈ 22.8 µM)
MIC (Candida albicans; Candida albicans A 3140, read-out: MIC values): 12.5 µg/mL (≈ 47.5 µM)
MIC (Candida albicans; Candida albicans A 3141, read-out: MIC values): > 100 µg/mL
MIC (Candida albicans; Candida albicans A 3142, read-out: MIC values): 50 µg/mL (≈ 190 µM)
MIC (Candida albicans; Candida albicans A 3143, read-out: MIC values): 6 µg/mL (≈ 22.8 µM)
MIC (Candida albicans; Candida albicans A 3144, read-out: MIC values): 50 µg/mL (≈ 190 µM)
MIC (Candida albicans; Candida albicans A 3145, read-out: MIC values): > 100 µg/mL
MIC (Candida albicans; Candida albicans A 3165, read-out: MIC values): 50 µg/mL (≈ 190 µM)
MIC (Candida albicans; Candida albicans A 3166, read-out: MIC values): 12.5 µg/mL (≈ 47.5 µM)
MIC (Candida albicans; Candida albicans A 3167, read-out: MIC values): 50 µg/mL (≈ 190 µM)
MIC (Candida albicans; Candida albicans A 3168, read-out: MIC values): 50 µg/mL (≈ 190 µM)
MIC (Candida albicans; Candida albicans A 3169, read-out: MIC values): 100 µg/mL (≈ 380 µM)
MIC (Candida albicans; Candida albicans A 3171, read-out: MIC values): 50 µg/mL (≈ 190 µM)
MIC (Candida albicans; Candida albicans A 3184, read-out: MIC values): 100 µg/mL (≈ 380 µM)
MIC (Candida albicans; Candida albicans A 3190, read-out: MIC values): 50 µg/mL (≈ 190 µM)
MIC (Candida albicans; Candida albicans A 3191, read-out: MIC values): 50 µg/mL (≈ 190 µM)
MIC (Candida albicans; Candida albicans A 3192, read-out: MIC values): 25 µg/mL (≈ 94.9 µM)
MIC (Candida albicans; Candida albicans A 3194, read-out: MIC values): > 100 µg/mL
MIC (Candida albicans; Candida albicans A 3196, read-out: MIC values): 25 µg/mL (≈ 94.9 µM)
MIC (Diplococcus pneumoniae): 6 µg/mL (≈ 22.8 µM)
MIC (Pasteurella multocida; Pasteurella multocida A 723): 3 µg/mL (≈ 11.4 µM)
MIC (Proteus morganii): 100 µg/mL (≈ 380 µM)
MIC (Staphylococcus aureus; Staphylococcus aureus A 321): 12.5 µg/mL (≈ 47.5 µM)
MIC (Staphylococcus aureus; Staphylococcus aureus A 355): 6 µg/mL (≈ 22.8 µM)
MIC (Staphylococcus aureus; Staphylococcus aureus A 2000): 6 µg/mL (≈ 22.8 µM)
MIC (Trichophyton equinum; Trichophyton equinum 182-76, read-out: MIC values): 3 µg/mL (≈ 11.4 µM)
MIC (Trichophyton equinum; Trichophyton equinum 441-51, read-out: MIC values): < 0.05 µg/mL
MIC (Trichophyton equinum; Trichophyton equinum 856-71, read-out: MIC values): 0.2 µg/mL (≈ 0.759 µM)
MIC ([2]; Trichophyton mentagrophytus 367-68, read-out: MIC values): 0.2 µg/mL (≈ 0.759 µM)
MIC ([2]; Trichophyton mentagrophytus 421-67, read-out: MIC values): 0.8 µg/mL (≈ 3.04 µM)
MIC ([2]; Trichophyton mentagrophytus A 3252, read-out: MIC values): 1.5 µg/mL (≈ 5.7 µM)
MIC ([2]; Trichophyton mentagrophytus R 177, read-out: MIC values): 6 µg/mL (≈ 22.8 µM)
MIC ([2]; Trichophyton mentagrophytus R 178, read-out: MIC values): > 100 µg/mL
MIC ([2]; Trichophyton mentagrophytus RRL 305, read-out: MIC values): 3 µg/mL (≈ 11.4 µM)
MIC (Trichophyton quickeaneum; Trichophyton quickeaneum A 2040): 3 µg/mL (≈ 11.4 µM)
MIC (Trichophyton rubrum; Trichophyton rubrum 218-65, read-out: MIC values): 0.1 µg/mL (≈ 0.38 µM)
MIC (Trichophyton rubrum; Trichophyton rubrum 494-62, read-out: MIC values): 0.8 µg/mL (≈ 3.04 µM)
MIC (Trichophyton rubrum; Trichophyton rubrum A 810, read-out: MIC values): 6 µg/mL (≈ 22.8 µM)
MIC ([3]; Trichophyton schoenleinii 435-63): < 0.05 µg/mL
MIC ([4]; Trichophyton soudanese joyeux 440-63): 3 µg/mL (≈ 11.4 µM)
MIC (Trichophyton tonsurans; Trichophyton tonsurans 561-50): 1.5 µg/mL (≈ 5.7 µM)
MIC (Trichophyton verrucosum; Trichophyton verrucosum 134-66, read-out: MIC values): < 0.05 µg/mL
MIC (Trichophyton verrucosum; Trichophyton verrucosum N 3, read-out: MIC values): 0.1 µg/mL (≈ 0.38 µM)
MIC (Trichophyton violoceum; Trichophyton violoceum 442-62): 0.05 µg/mL (≈ 0.19 µM)
SMILES: [C-]#[N+]C(=CC(C)(C)C)S(=O)(=O)c1ccc(C)cc1 [Example 4, 3,3-dimethyl-1-isocyano-1-(4-toluenesulphonyl)-1-butene]
MIC ([1]; Streptococcus haemolyticus A 1088): 1.5 µg/mL (≈ 5.7 µM)

SMILES: [C-]#[N+]C(=C1CCCC1)S(=O)(=O)c1ccc(C)cc1 [Example 9, a-cyclopentylidene-a-(4-toluenesulphonyl)-methylisocyanide]
MIC (Candida albicans; read-out: MIC values, Candida albicans A 7): 0.8 µg/mL (≈ 3.06 µM)
MIC (Candida albicans; read-out: MIC values, Candida albicans A 3140): 1.5 µg/mL (≈ 5.74 µM)
MIC (Candida albicans; read-out: MIC values, Candida albicans A 3141): 3 µg/mL (≈ 11.5 µM)
MIC (Candida albicans; read-out: MIC values, Candida albicans A 3142): 1.5 µg/mL (≈ 5.74 µM)
MIC (Candida albicans; read-out: MIC values, Candida albicans A 3143): 0.8 µg/mL (≈ 3.06 µM)
MIC (Candida albicans; read-out: MIC values, Candida albicans A 3144): 1.5 µg/mL (≈ 5.74 µM)
MIC (Candida albicans; read-out: MIC values, Candida albicans A 3145): 1.5 µg/mL (≈ 5.74 µM)
MIC (Candida albicans; read-out: MIC values, Candida albicans A 3165): 3 µg/mL (≈ 11.5 µM)
MIC (Candida albicans; read-out: MIC values, Candida albicans A 3166): 6 µg/mL (≈ 23 µM)
MIC (Candida albicans; read-out: MIC values, Candida albicans A 3167): 3 µg/mL (≈ 11.5 µM)
MIC (Candida albicans; read-out: MIC values, Candida albicans A 3168): 6 µg/mL (≈ 23 µM)
MIC (Candida albicans; read-out: MIC values, Candida albicans A 3169): 3 µg/mL (≈ 11.5 µM)
MIC (Candida albicans; read-out: MIC values, Candida albicans A 3171): 3 µg/mL (≈ 11.5 µM)
MIC (Candida albicans; read-out: MIC values, Candida albicans A 3184): 1.5 µg/mL (≈ 5.74 µM)
MIC (Candida albicans; read-out: MIC values, Candida albicans A 3190): 1.5 µg/mL (≈ 5.74 µM)
MIC (Candida albicans; read-out: MIC values, Candida albicans A 3191): 0.8 µg/mL (≈ 3.06 µM)
MIC (Candida albicans; read-out: MIC values, Candida albicans A 3192): 0.8 µg/mL (≈ 3.06 µM)
MIC (Candida albicans; read-out: MIC values, Candida albicans A 3194): 0.8 µg/mL (≈ 3.06 µM)
MIC (Candida albicans; read-out: MIC values, Candida albicans A 3196): 3 µg/mL (≈ 11.5 µM)
MIC (Fusarium (bulb)): 25 µg/mL (≈ 95.7 µM)
MIC (Fusarium (tulip)): 12.5 µg/mL (≈ 47.8 µM)
MIC (Fusarium solani): 12.5 µg/mL (≈ 47.8 µM)
MIC (Pasteurella multocida; Pasteurella multocida): 3 µg/mL (≈ 11.5 µM)
MIC (Rhizoctonia solani): 1.5 µg/mL (≈ 5.74 µM)
MIC ([1]; Streptococcus): 25 µg/mL (≈ 95.7 µM)
MIC (Trichophyton equinum; read-out: MIC values, Trichophyton equinum 182-76): 3 µg/mL (≈ 11.5 µM)
MIC (Trichophyton equinum; read-out: MIC values, Trichophyton equinum 441-51): 0.1 µg/mL (≈ 0.383 µM)
MIC (Trichophyton equinum; read-out: MIC values, Trichophyton equinum 856-71): < 0.05 µg/mL
MIC ([2]; read-out: MIC values, Trichophyton mentagrophytus 367-68): 3 µg/mL (≈ 11.5 µM)
MIC ([2]; read-out: MIC values, Trichophyton mentagrophytus 421-67): 6 µg/mL (≈ 23 µM)
MIC ([2]; read-out: MIC values, Trichophyton mentagrophytus A 3252): 1.5 µg/mL (≈ 5.74 µM)
MIC ([2]; read-out: MIC values, Trichophyton mentagrophytus R 177): 3 µg/mL (≈ 11.5 µM)
MIC ([2]; read-out: MIC values, Trichophyton mentagrophytus R 178): 12.5 µg/mL (≈ 47.8 µM)
MIC ([2]; read-out: MIC values, Trichophyton mentagrophytus RRL 305): 0.8 µg/mL (≈ 3.06 µM)
MIC (Trichophyton quickeaneum; Trichophyton): 1.5 µg/mL (≈ 5.74 µM)
MIC (Trichophyton rubrum; read-out: MIC values, Trichophyton rubrum 218-65): 0.8 µg/mL (≈ 3.06 µM)
MIC (Trichophyton rubrum; read-out: MIC values, Trichophyton rubrum 494-62): 1.5 µg/mL (≈ 5.74 µM)
MIC (Trichophyton rubrum; read-out: MIC values, Trichophyton rubrum A 810): 0.1 µg/mL (≈ 0.383 µM)
MIC ([3]; Trichophyton schoenleinii): 0.4 µg/mL (≈ 1.53 µM)
MIC ([4]; Trichophyton): 6 µg/mL (≈ 23 µM)
MIC (Trichophyton tonsurans; Trichophyton tonsurans): 6 µg/mL (≈ 23 µM)
MIC (Trichophyton verrucosum; read-out: MIC values, Trichophyton verrucosum 134-66): < 0.05 µg/mL
MIC (Trichophyton verrucosum; read-out: MIC values, Trichophyton verrucosum A 2922): 0.4 µg/mL (≈ 1.53 µM)
MIC (Trichophyton violoceum; Trichophyton): 0.4 µg/mL (≈ 1.53 µM)
